Results as given in patent US9221796B2, “Selective NR2B antagonists” (BRISTOL-MYERS SQUIBB COMPANY, priority 2014, dated 2015).

The compounds below were run against NR2B-subtype NMDA receptors (Rattus norvegicus (Rat), UniProt P35439+Q00960) (assay: Radioligand binding assay (3H Ro 25-6981 competition, forebrain membranes)). Settings: 3H Ro 25-6981 (4 nM), read-out: NR2B Binding Ki.
Procedure: Radioligand Binding Assay. […] Buchy D; Klingelschmidt A; Messer J; Bleuel Z; Kemp J A; Richards J G. […] Thawed brains were homogenized using a Dounce homogenizer and centrifuged at 48000×g for 20 min. The pellet was resuspended in cold buffer and homogenized again using a Dounce homogenizer. […] After incubation for 1 hr at room temperature, the membrane bound radioligand was harvested on to GF/B filter plates (treated with 0.5% PEI for 1 hr at room temperature). The filter plates were dried at 50° C. for 20 mins, incubated with microscint 20 for 10 minutes and finally, the counts were read on TopCount (Perkin Elmer). […] CPM values were converted to % inhibition and the concentration response curves were plotted using custom made software. Each experiment was repeated at least twice to obtain the final binding Ki values for experimental compounds.

Sequence of NR2B-subtype NMDA receptors (Q00960 27-1482, other chains not shown): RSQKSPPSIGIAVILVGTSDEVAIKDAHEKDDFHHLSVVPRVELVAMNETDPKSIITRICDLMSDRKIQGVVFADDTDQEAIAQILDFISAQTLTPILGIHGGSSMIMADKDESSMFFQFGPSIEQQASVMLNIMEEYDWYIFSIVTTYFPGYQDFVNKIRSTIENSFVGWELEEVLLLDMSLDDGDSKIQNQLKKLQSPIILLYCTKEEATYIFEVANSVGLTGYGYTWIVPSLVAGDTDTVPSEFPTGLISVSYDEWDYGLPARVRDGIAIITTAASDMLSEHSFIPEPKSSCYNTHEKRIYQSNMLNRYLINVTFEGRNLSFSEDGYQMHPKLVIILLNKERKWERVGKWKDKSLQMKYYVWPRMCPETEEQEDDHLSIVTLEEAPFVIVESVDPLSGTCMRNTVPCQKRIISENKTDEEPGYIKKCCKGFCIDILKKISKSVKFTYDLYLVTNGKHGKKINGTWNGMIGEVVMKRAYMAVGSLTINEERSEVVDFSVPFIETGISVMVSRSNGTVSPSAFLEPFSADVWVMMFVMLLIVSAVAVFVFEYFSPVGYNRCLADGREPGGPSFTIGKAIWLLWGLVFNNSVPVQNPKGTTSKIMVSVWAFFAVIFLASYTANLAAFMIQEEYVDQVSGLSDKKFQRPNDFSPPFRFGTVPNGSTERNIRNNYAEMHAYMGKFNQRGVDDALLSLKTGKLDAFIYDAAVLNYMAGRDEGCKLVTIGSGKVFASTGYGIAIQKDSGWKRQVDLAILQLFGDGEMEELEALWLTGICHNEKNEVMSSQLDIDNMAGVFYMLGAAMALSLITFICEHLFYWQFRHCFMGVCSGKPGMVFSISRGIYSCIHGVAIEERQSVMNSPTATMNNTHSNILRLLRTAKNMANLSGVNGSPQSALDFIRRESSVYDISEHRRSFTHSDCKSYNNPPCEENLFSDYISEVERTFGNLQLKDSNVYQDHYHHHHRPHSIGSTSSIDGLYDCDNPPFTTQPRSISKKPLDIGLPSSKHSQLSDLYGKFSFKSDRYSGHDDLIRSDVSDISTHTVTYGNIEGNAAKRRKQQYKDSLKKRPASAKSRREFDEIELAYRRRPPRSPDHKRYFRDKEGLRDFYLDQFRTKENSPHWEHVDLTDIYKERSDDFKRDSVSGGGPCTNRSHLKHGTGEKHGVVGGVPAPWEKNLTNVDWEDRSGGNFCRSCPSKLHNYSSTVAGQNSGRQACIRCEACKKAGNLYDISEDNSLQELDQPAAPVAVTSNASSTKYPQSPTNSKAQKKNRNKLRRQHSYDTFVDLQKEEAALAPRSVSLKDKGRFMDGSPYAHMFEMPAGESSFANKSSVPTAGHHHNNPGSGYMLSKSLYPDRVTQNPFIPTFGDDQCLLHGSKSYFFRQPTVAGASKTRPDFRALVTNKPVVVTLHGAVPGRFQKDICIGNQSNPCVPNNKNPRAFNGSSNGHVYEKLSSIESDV

Row | Ki [nM] | SMILES
1 | 5000 | O=C1C(N2CCC(c3ccc(O)cc3)C(O)C2)CCN1Cc1ccc(F)cc1 (single isomer, unassigned) [Example 9c, 1-(4-Fluorobenzyl)-3-(3-hydroxy-4-(4-hydroxyphenyl)-piperidin-1-yl)pyrrolidin-2-one]
2 | 8.7 | O=C1[C@H](N2CC[C@@H](c3ccc(O)cc3)[C@H](F)C2)CCN1Cc1ccccc1 [Example 58, (R)-1-Benzyl-3-((3S,4S)-3-fluoro-4-(4-hydroxyphenyl)piperidin-1-yl)pyrrolidin-2-one]
3 | 480 | O=C1C(N2CCC(c3ccc(O)cc3)CC2)CCCN1Cc1ccccc1 (stereo not drawn) [Example 40, 1′-Benzyl-4-(4-hydroxyphenyl)-[1,3′-bipiperidin]-2′-one]
4 | 11 | O=C1[C@H](N2CCC(c3ccc(O)cc3)C(F)(F)C2)CCN1c1ccc(OC(F)F)c(Cl)c1 (stereo partly drawn) [Example 101, P-2, (3R)-1-(3-Chloro-4-(difluoromethoxy)phenyl)-3-(3,3-difluoro-4-(4-hydroxyphenyl)-piperidin-1-yl)pyrrolidin-2-one]
5 | 7.7 | O=C1[C@H](N2CCC(c3ccc(O)cc3)C(F)(F)C2)CCN1Cc1ccc(Cl)c(F)c1 (single isomer, unassigned) [Example 107, P-2]
6 | 33 | Cc1ccccc1CN1CCC(N2CC[C@H](c3ccc(O)cc3)[C@@H](F)C2)C1=O (stereo partly drawn) [Example 76, 3-((3R,4R)-3-Fluoro-4-(4-hydroxyphenyl)piperidin-1-yl)-1-(2-methylbenzyl)pyrrolidin-2-one]
7 | 410 | Cc1ccc(CN2CC[C@H](N3CC(c4ccc(O)cc4)C3)C2=O)cc1F [Example 21b, (S)-1-(3-Fluoro-4-methylbenzyl)-3-(3-(4-hydroxyphenyl)azetidin-1-yl)pyrrolidin-2-one]
8 | 6 | O=C1[C@H](N2CC[C@@H](c3ccc(O)cc3)[C@H](F)C2)CCN1Cc1ccc(C(F)(F)F)cc1 [Example 72, (R)-3-((3S,4S)-3-Fluoro-4-(4-hydroxyphenyl)piperidin-1-yl)-1-(4-(trifluoromethyl)benzyl)-pyrrolidin-2-one]
9 | 1100 | O=C1C(N2CCC(c3ccc(O)cc3)C(F)(F)C2)CCN1Cc1ccc(C(F)(F)F)cc1 (single isomer, unassigned) [Example 53, P-1, 3-(3,3-Difluoro-4-(4-hydroxyphenyl)piperidin-1-yl)-1-(4-(trifluoromethyl)-benzyl)pyrrolidin-2-one]
10 | 470 | Cc1ccc(CN2CC[C@H](N3CC[C@@H](c4ccc(O)cc4)[C@H](F)C3)C2=O)cc1F [Example 47, P-1, (S)-3-((3S,4S)-3-Fluoro-4-(4-hydroxyphenyl)piperidin-1-yl)-1-(3-fluoro-4-methylbenzyl)pyrrolidin-2-one]
11 | 490 | O=C1[C@@H](N2CC[C@@H](c3ccc(O)cc3)[C@H](F)C2)CCN1Cc1ccccc1 [Example 57, (S)-1-Benzyl-3-((3S,4S)-3-fluoro-4-(4-hydroxyphenyl)piperidin-1-yl)pyrrolidin-2-one]
12 | 36 | O=C1C(N2CCC(c3ccc(O)cc3)C(F)(F)C2)CCN1Cc1ccc(C(F)(F)F)cc1 (stereo not drawn) [Example 110, 3-(3,3-Difluoro-4-(4-hydroxyphenyl)piperidin-1-yl)-1-(4-(trifluoromethyl)benzyl)-pyrrolidin-2-one]
13 | 560 | O=C1[C@@H](N2CC[C@H](c3ccc(O)cc3)[C@@H](F)C2)CCN1Cc1ccc(Cl)cc1 [Example 80, (S)-1-(4-Chlorobenzyl)-3-((3R,4R)-3-fluoro-4-(4-hydroxyphenyl)piperidin-1-yl)pyrrolidin-2-one]
14 | 22 | O=C1C(N2CCC(c3ccc(O)cc3)C(F)(F)C2)CCN1Cc1ccc(C(F)(F)F)cc1 (stereo in doubt) [Example 99, P-2, (3S)-3-(3,3-Difluoro-4-(4-hydroxyphenyl)piperidin-1-yl)-1-(4-(trifluoromethyl)benzyl)-pyrrolidin-2-one]
15 | 14 | O=C1C(N2CCC(c3ccc(O)cc3)C(F)(F)C2)CCN1Cc1ccccc1 (single isomer, unassigned) [Example 91, P-2, 1-Benzyl-3-(3,3-difluoro-4-(4-hydroxyphenyl)piperidin-1-yl)pyrrolidin-2-one]
16 | 10 | O=C1[C@H](N2CC[C@@H](c3ccc(O)cc3)[C@H](F)C2)CCN1c1ccc(OC(F)F)c(Cl)c1 [Example 63, (R)-1-(3-Chloro-4-(difluoromethoxy)phenyl)-3-((3S,4S)-3-fluoro-4-(4-hydroxyphenyl)-piperidin-1-yl)pyrrolidin-2-one]
17 | ≥ 5000 | C[C@@H](c1ccc(F)cc1)N1CCC(N2CCC(c3ccc(O)cc3)C(F)(F)C2)C1=O (single isomer, unassigned) [Example 56, P-3]
18 | 110 | Cc1cccc(CN2CCC(N3CC[C@@H](c4ccc(O)cc4)[C@H](F)C3)C2=O)c1 (stereo partly drawn) [Example 60, 3-((3S,4S)-3-Fluoro-4-(4-hydroxyphenyl)piperidin-1-yl)-1-(3-methylbenzyl)pyrrolidin-2-one]
19 | 740 | O=C1[C@@H](N2CCC(c3ccc(O)cc3)CC2)CCN1Cc1ccc(F)cc1 [Example 2a, (S)-1-(4-Fluorobenzyl)-3-(4-(4-hydroxyphenyl)-piperidin-1-yl)pyrrolidin-2-one]
20 | 490 | O=C1[C@@H](N2CCC(c3ccc(O)cc3)C(F)(F)C2)CCN1Cc1ccc(Cl)c(F)c1 (stereo partly drawn) [Example 96, P-1, (3S)-1-(4-Chloro-3-fluorobenzyl)-3-(3,3-difluoro-4-(4-hydroxyphenyl)piperidin-1-yl)pyrrolidin-2-one]
21 | 1300 | C[C@@H](c1ccc(F)cc1)N1CC[C@@H](N2CC[C@@H](c3ccc(O)cc3)[C@H](F)C2)C1=O [Example 50, P-4, (R)-3-((3S,4S)-3-fluoro-4-(4-hydroxyphenyl)piperidin-1-yl)-1-((S)-1-(4-fluorophenyl)-ethyl)pyrrolidin-2-one]
22 | 31 | Cc1ccc(CN2CCC(N3CCC(c4ccc(O)cc4)CC3)C2=O)cc1C (stereo not drawn) [Example 26, 1-(3,4-Dimethylbenzyl)-3-(4-(4-hydroxyphenyl)piperidin-1-yl)pyrrolidin-2-one]
23 | 37 | O=C1C(N2CCC(c3ccc(O)cc3)CC2)CCN1Cc1ccc(OC(F)F)cc1 (stereo not drawn) [Example 7, 1-(4-(Difluoromethoxy)benzyl)-3-(4-(4-hydroxyphenyl)piperidin-1-yl)pyrrolidin-2-one]
24 | 1.6 | O=C1C(N2CCC(c3ccc(O)cc3)CC2)CCN1Cc1ccc(Cl)cc1 (racemic) [Example 17, 1-(4-Chlorobenzyl)-3-(4-(4-hydroxyphenyl)piperidin-1-yl)pyrrolidin-2-one]
25 | 4.7 | O=C1C(N2CCC(c3ccc(O)c(F)c3)CC2)CCN1Cc1ccccc1 (stereo not drawn) [Example 30, 1-Benzyl-3-(4-(3-fluoro-4-hydroxyphenyl)piperidin-1-yl)pyrrolidin-2-one]
26 | 890 | C[C@@H](c1ccc(F)cc1)N1CC[C@@H](N2CC[C@H](c3ccc(O)cc3)[C@@H](F)C2)C1=O [Example 50, P-2, (R)-3-((3R,4R)-3-fluoro-4-(4-hydroxyphenyl)piperidin-1-yl)-1-((S)-1-(4-fluorophenyl)ethyl)pyrrolidin-2-one]
27 | 59 | Cc1ccccc1CN1CCC(N2CCC(c3ccc(O)cc3)C(F)(F)C2)C1=O (stereo not drawn) [Example 92, 3-(3,3-Difluoro-4-(4-hydroxyphenyl)piperidin-1-yl)-1-(2-methylbenzyl)pyrrolidin-2-one]
